Values after ≈ are worked out from the molar mass of the structure shown. Like-named read-outs stand apart in the source and are kept apart here.
Key:
E. coli = assay: MIC, broth dilution; type: cell-based, Escherichia coli KCTC 1682; conditions: Escherichia coli, 16 h, read-out: Minimal Inhibitory Concentration (MIC)
Source text: (§1) Escherichia coli KCTC 1682 was obtained from the Korean Collection for Type Cultures (KCTC) (Jeongeup-si, Korea), Acinetobacter baumannii KCCM 40203, Pseudomonas aeruginosa KCCM 11328 from the Korea Culture Center of Microorganisms (KCCM) (Seoul, Korea). Klebsiella pneumoniae NCCP 16054 were obtained from the National Culture Collection for Pathogens (NCCP) (Osong, Korea). Additionally, two carbapenem-resistant E. coli (CREC E1 and E2), 11 carbapenem-resistant A. baumannii (CRAB C0–C10) and two carbapenem-resistant K. pneumoniae (CRKP K1 and K2) were isolated from the patients, who presented symptoms and signs of infection at Korea University Anam Hospital (Seoul, Korea) (IRB registration no. 2020AN0157, 4 March 2021). CRAB C0–C10 have the OXA-23 gene with carbapenem-resistance.
(§2) The minimum inhibitory concentrations (MIC) were determined using broth dilution method. Briefly, all the mentioned bacterial strains were grown overnight at 37 °C by Muller–Hinton (MH) media. […] After 16 h incubation, the bacterial growth was read at 600 nm using a SpectraMAX microplate reader (Molecular Devices, San Jose, CA, USA).

A. baumannii = assay: MIC, broth dilution; type: cell-based, Acinetobacter baumannii KCCM 40203; conditions: 16 h, MH media, read-out: Minimal Inhibitory Concentration (MIC)
Source text: as §1, §2

P. aeruginosa = assay: MIC, broth dilution; type: cell-based, Pseudomonas aeruginosa KCCM 11328; conditions: Pseudomonas aeruginosa, 16 h, MH media, read-out: Minimal Inhibitory Concentration (MIC)
Source text: as §1, §2

CREC E1 = assay: MIC, broth dilution; type: cell-based, carbapenem-resistant E. coli; conditions: read-out: Minimal Inhibitory Concentration (MIC)
Source text: as §1, §2

CREC E2 = assay: MIC, broth dilution; type: cell-based, carbapenem-resistant E. coli; conditions: read-out: Minimal Inhibitory Concentration (MIC)
Source text: as §1, §2

CRAB C0 [1] = assay: MIC, broth dilution; type: cell-based, carbapenem-resistant A. baumannii; conditions: read-out: Minimal Inhibitory Concentration (MIC)
Source text: as §1, §2

CRAB C10 = assay: MIC, broth dilution; type: cell-based, carbapenem-resistant A. baumannii; conditions: read-out: Minimal Inhibitory Concentration (MIC)
Source text: as §1, §2

CRAB C2 = assay: MIC, broth dilution; type: cell-based, carbapenem-resistant A. baumannii; conditions: read-out: Minimal Inhibitory Concentration (MIC)
Source text: as §1, §2

CRAB C3 = assay: MIC, broth dilution; type: cell-based, carbapenem-resistant A. baumannii; conditions: read-out: Minimal Inhibitory Concentration (MIC)
Source text: as §1, §2

CRAB C4 = assay: MIC, broth dilution; type: cell-based, carbapenem-resistant A. baumannii; conditions: read-out: Minimal Inhibitory Concentration (MIC)
Source text: as §1, §2

CRAB C5 = assay: MIC, broth dilution; type: cell-based, carbapenem-resistant A. baumannii; conditions: read-out: Minimal Inhibitory Concentration (MIC)
Source text: as §1, §2

CRAB C6 = assay: MIC, broth dilution; type: cell-based, carbapenem-resistant A. baumannii; conditions: read-out: Minimal Inhibitory Concentration (MIC)
Source text: as §1, §2

CRAB C7 = assay: MIC, broth dilution; type: cell-based, carbapenem-resistant A. baumannii; conditions: read-out: Minimal Inhibitory Concentration (MIC)
Source text: as §1, §2

CRAB C9 = assay: MIC, broth dilution; type: cell-based, carbapenem-resistant A. baumannii; conditions: read-out: Minimal Inhibitory Concentration (MIC)
Source text: as §1, §2

CRAB C1 = assay: microbe, parasite or virus in culture; conditions: for MIC: Acinetobacter baumannii, read-out: Minimal Inhibitory Concentration (MIC)
Source text: as §1, §2

CRAB C8 = assay: microbe, parasite or virus in culture; conditions: for MIC: Acinetobacter baumannii, read-out: Minimal Inhibitory Concentration (MIC)
Source text: as §1, §2

K. pneumoniae = assay: microbe, parasite or virus in culture; conditions: 16 h; for MIC: Klebsiella pneumoniae, read-out: Minimal Inhibitory Concentration (MIC)
Source text: as §1, §2

CRKP K1 = assay: MIC, broth dilution; type: cell-based, carbapenem-resistant K. pneumoniae; conditions: read-out: Minimal Inhibitory Concentration (MIC)
Source text: as §1, §2

CRKP K2 = assay: MIC, broth dilution; type: cell-based, carbapenem-resistant K. pneumoniae; conditions: read-out: Minimal Inhibitory Concentration (MIC)
Source text: as §1, §2

[2] = tested on: standard Gram-negative bacteria and carbapenem-resistant Gram-negative bacteria; assay: Mean MIC over all bacterial strains (GM) and selective index; type: cell-based; conditions: read-out: GM (geometric mean of MIC values of all bacterial strains)
Procedure: as §2

CRAB C0 [3] = assay: Biofilm assay, crystal violet staining; type: cell-based, carbapenem-resistant A. baumannii; conditions: 16 h
Procedure: Figure 4 Pro9-3 and its analogs have biofilm inhibition properties against CRAB. The antibiofilm activities of peptides (0–32 μM, 16 h) on (A) A. baumannii and (B) CRAB C0 strains were measured by crystal violet staining and the number of attached cells were read at 595 nm. Melittin, meropenem and imipenem were used as a control. Data are shown as the mean ± SEM (n = 3) and are statistically significant at * p < 0.05; *** p < 0.001; ns, not significant (two-way analysis of variance (ANOVA) with Dunnett’s comparison test).
The effects of peptides on biofilm inhibition of A. baumannii and CRAB C0 strains were performed as described previously. […] After treatment, bacterial cells were fixed with methanol (100%, 15 min) followed by crystal violet staining (0.1% (w/v) in 0.25% (v/v) acetic acid for 1 h). The plates were washed with distilled H2O, allowed to dry, and dissolved in ethanol (100% v/v). The color development representing the degree of biofilm was measured at 595 nm.

intact CRAB C0 = assay: Depolarization of intact CRAB C0 (diSC3-5); type: cell-based, carbapenem-resistant A. baumannii; conditions: 4 μM
Procedure: (§3) The depolarization capacity by peptides were measured by using a membrane potential sensitive dye 3,3′-dipropylthiadicarbocyanine iodide (diSC3-5) as previously described using intact CRAB C0. Briefly, CRAB C0 cells were washed using wash buffer (5 mM HEPES, 20 mM glucose, pH 7.4). The cells were resuspended in dilution buffer (5 mM HEPES, 20 mM glucose, 0.1 M KCl, pH 7.4) and then incubated with diSC3-5 dye (1 h). In parallel, spheroplasts of CRAB C0 cells (contains plasma membrane and peptidoglycans) were prepared by damaging outer membrane using osmotic shock, as described previously. Finally, varying concentrations of peptide treated cells, negative control (cells with dye) and positive control (1% triton X-100) were recorded for change in fluorescence using fluorescent spectrophotometer and expressed as percent depolarization.

CRAB C0 spheroplasts = assay: Cytoplasmic membrane depolarization of CRAB C0 spheroplasts (diSC3-5); type: cell-based, carbapenem-resistant A. baumannii; conditions: 4 μM
Procedure: as §3

LPS = assay: Limulus amebocyte lysate (LAL) assay, LPS neutralization; type: biochemical; conditions: 1.6 μM
Procedure: Peptide-mediated LPS neutralization was determined using LAL assay (GenScript, Piscataway, NJ, USA). Briefly, peptides 10 μL each (3.1, 6.3, 12.5, 25, and 50 μM) were allowed to interact with LPS (2 ng/mL) for 10 min at 37 °C. LL-37 was used as a control. A LAL enzyme (10 μL) was added to peptide-LPS complex for 10 min followed by addition of a chromogenic substrate (5 min, 37 °C). The reaction was stopped using color substrates and the absorbance was measured at 545 nm against endotoxin standard. The endotoxin levels are expressed as endotoxin units (EU) per milliliter.

LPS (E. coli O111:B4) = assay: Peptide-LPS binding, BODIPY-TR-cadaverine displacement assay; conditions: 4 μM
Procedure: The binding abilities of the peptides with LPS was analyzed by BODIPY-TR cadaverine (BC, Thermo Fisher Scientific, Waltham, MA, USA)-displacement assay. The probe complex was prepared by mix 5 μg/mL BC with 5 μg/mL LPS (E. coli O111:B4, Sigma-Aldrich, St. Louis, MO, USA) in a 50 mM Tris buffer (pH 7.4) at room temperature for 6 h. Peptides including polymyxin B (PMB) control (1–64 μM) were allowed to interact with LPS–BC mix in a black 96-well plate for 30 min. The relative fluorescence intensity was recorded at an excitation wavelength of 580 nm and emission wavelength of 620 nm using a fluorescence microplate reader (Molecular Devices, San Jose, CA, USA).

Compound	MIC (A. baumannii; Acinetobacter baumannii) [µM]	MIC (P. aeruginosa) [µM]	MIC (CREC E1; Escherichia coli) [µM]	MIC (CREC E2; Escherichia coli) [µM]	MIC (CRAB C0 [1]; Acinetobacter baumannii) [µM]	MIC (CRAB C10; Acinetobacter baumannii) [µM]	MIC (CRAB C2; Acinetobacter baumannii) [µM]	MIC (CRAB C3; Acinetobacter baumannii) [µM]	MIC (CRAB C4; Acinetobacter baumannii) [µM]	MIC (CRAB C5; Acinetobacter baumannii) [µM]	MIC (CRAB C6; Acinetobacter baumannii) [µM]	MIC (CRAB C7; Acinetobacter baumannii) [µM]	MIC (CRAB C9; Acinetobacter baumannii) [µM]	MIC (CRAB C1) [µM]	MIC (CRAB C8) [µM]	MIC (K. pneumoniae) [µM]	MIC (CRKP K1; Klebsiella pneumoniae) [µM]	MIC (CRKP K2; Klebsiella pneumoniae) [µM]	MIC [2] [µM]	Biofilm inhibition of CRAB C0 (CRAB C0 [3])	also measured
C[C@@H](O)[C@H]1C(=O)N2C(C(=O)O)=C(SCCN=CN)C[C@H]12 [Imipenem, reference compound]	1 (≈ 0.299 µg/mL)	1 (≈ 0.299 µg/mL)	> 128	16 (≈ 4.79 µg/mL)	> 128	> 128	> 128	128 (≈ 38.3 µg/mL)	128 (≈ 38.3 µg/mL)	128 (≈ 38.3 µg/mL)	128 (≈ 38.3 µg/mL)	128 (≈ 38.3 µg/mL)	> 128	> 128	> 128	< 0.25	32 (≈ 9.58 µg/mL)	> 128	90.3 (≈ 27 µg/mL)	unable to inhibit	MIC (E. coli): 0.5 µM (≈ 0.15 µg/mL)
CC[C@H](C)[C@H](NC(=O)CN)C(=O)NCC(=O)N[C@@H](C)C(=O)N[C@H](C(=O)N[C@@H](CC(C)C)C(=O)N[C@@H](CCCCN)C(=O)N[C@H](C(=O)N[C@@H](CC(C)C)C(=O)N[C@H](C(=O)N[C@H](C(=O)NCC(=O)N[C@@H](CC(C)C)C(=O)N1CCC[C@H]1C(=O)N[C@@H](C)C(=O)N[C@@H](CC(C)C)C(=O)N[C@H](C(=O)N[C@@H](CO)C(=O)N[C@@H](Cc1c[nH]c2ccccc12)C(=O)N[C@H](C(=O)N[C@@H](CCCCN)C(=O)N[C@@H](CCCNC(=N)N)C(=O)N[C@@H](CCCCN)C(=O)N[C@@H](CCCNC(=N)N)C(=O)N[C@@H](CCC(N)=O)C(=O)N[C@@H](CCC(N)=O)C(N)=O)[C@@H](C)CC)[C@@H](C)CC)[C@@H](C)O)[C@@H](C)O)C(C)C)C(C)C [Melittin, reference compound]																					MIC (A. baumannii): 4 µM (≈ 11.4 µg/mL); MIC (CREC E1): 8 µM (≈ 22.8 µg/mL); MIC (CREC E2): 8 µM (≈ 22.8 µg/mL); MIC (CRAB C0 [1]): 4 µM (≈ 11.4 µg/mL); MIC (CRAB C10): 4 µM (≈ 11.4 µg/mL); MIC (CRAB C2): 4 µM (≈ 11.4 µg/mL); MIC (CRAB C3): 4 µM (≈ 11.4 µg/mL); MIC (CRAB C4): 4 µM (≈ 11.4 µg/mL); MIC (CRAB C5): 4 µM (≈ 11.4 µg/mL); MIC (CRAB C6): 4 µM (≈ 11.4 µg/mL); MIC (CRAB C7): 4 µM (≈ 11.4 µg/mL); MIC (CRAB C9): 4 µM (≈ 11.4 µg/mL); Minimal Inhibitory Concentration (MIC) (CRAB C1; CRAB C1): 4 µM; Minimal Inhibitory Concentration (MIC) (CRAB C8; CRAB C8): 4 µM; Minimal Inhibitory Concentration (MIC) (K. pneumoniae; K. pneumoniae, MH media): 32 µM; MIC (CRKP K1): 64 µM (≈ 182 µg/mL); MIC (CRKP K2): 64 µM (≈ 182 µg/mL); Depolarization of intact CRAB (diSC3-5) (intact CRAB C0): 75.6%; Increase of diSC3-5 fluorescence in CRAB spheroplasts (depolarization) (CRAB C0 spheroplasts): 67.9%
LL-37																					LPS neutralization (LAL assay) (LPS): 76.5%
polymyxin B [PMB]																					BC displacement (LPS binding) (LPS (E. coli O111:B4)): 76.6%
C[C@@H](O)[C@H]1C(=O)N2C(C(=O)O)=C(S[C@@H]3CN[C@H](C(=O)N(C)C)C3)[C@H](C)[C@H]12 [Meropenem, reference compound]	0.5 (≈ 0.192 µg/mL)	1 (≈ 0.383 µg/mL)	> 128	16 (≈ 6.14 µg/mL)	128 (≈ 49.1 µg/mL)	> 128	128 (≈ 49.1 µg/mL)	128 (≈ 49.1 µg/mL)	> 128	> 128	> 128	128 (≈ 49.1 µg/mL)	> 128	> 128	> 128	< 0.25	64 (≈ 24.5 µg/mL)	> 128	91.9 (≈ 35.2 µg/mL)	unable to inhibit	MIC (E. coli; E. coli, MH media): 0.25 µM (≈ 0.0959 µg/mL)

From paper PMC8621208, “Antiseptic 9-Meric Peptide with Potency against Carbapenem-Resistant Acinetobacter baumannii Infection” (International Journal of Molecular Sciences, 2021)
